Results: patent US12473582B2, “Method and agents for detecting luciferase activity” (LIGHT BIO, INC., priority 2015, dated 2025)

Key:
[1] = molecular target: T1, cold extract from Neonothopanus nambi (Neonothopanus nambi, UniProt A0A3G9K5C8); assay: Bioluminescent test of hot-extract HPLC fractions with cold extract and NADPH; type: biochemical; settings: cold extract from N. nambi, NADPH; values normalised against optical density at 360 nm
T1 construct: an extract comprising the enzymes of the fungal bioluminescent system and free from low-molecular-weight components; from tissue; host or cells: Neonothopanus nambi mycelium, crude cold extract (30000 g supernatant of the homogenate)
T1 sequence (A0A3G9K5C8 whole entry): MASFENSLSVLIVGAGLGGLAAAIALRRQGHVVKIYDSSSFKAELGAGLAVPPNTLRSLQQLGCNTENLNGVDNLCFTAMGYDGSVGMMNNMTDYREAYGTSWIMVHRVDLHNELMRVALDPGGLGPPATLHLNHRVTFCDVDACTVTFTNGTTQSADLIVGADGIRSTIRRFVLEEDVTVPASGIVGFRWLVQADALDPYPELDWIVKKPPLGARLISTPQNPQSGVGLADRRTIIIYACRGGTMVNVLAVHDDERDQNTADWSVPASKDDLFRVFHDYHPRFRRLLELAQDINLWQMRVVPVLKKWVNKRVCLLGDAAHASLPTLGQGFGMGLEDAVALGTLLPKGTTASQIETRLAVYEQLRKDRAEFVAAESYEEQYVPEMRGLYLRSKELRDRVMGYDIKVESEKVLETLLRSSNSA
Method: The obtained extracts were tested in a bioluminescent test described by Oliveira and Stevani (Photochem. Photobiol. Sci., 2009, 8, 1416) using a cold extract from Neonothopanus nambi.
In order to obtain a cold extract, the mycelium was washed to get rid of culture medium, then, it was put into a 200-fold amount of distilled water for 15 hours at 26° C. Thereafter, the mycelium was separated from water by centrifugation, then, it was homogenized on ice in 10 volumes of 0.2 M phosphate buffer, pH 7.5 and sonicated on ice for 10 minutes using Ultrasonic disintegrator UD-20. The homogenate was centrifuged at 30000 g at […] for 20 minutes. The obtained cold extract was stored at −20° C.
500 μl of the following components were mixed for a bioluminescent test: 25 μL of cold extract, 2 μL of hot extract, 442 μL 0.2 M phosphate buffer, pH 7.5, 1 μL 1 M DTT and 10 μL 1% Triton X-100. The bioluminescent reaction was initiated in a Glomax 20/20 (Promega, USA) luminometer cuvette by adding 20 μL 20 mM NADPH. Luminescence was measured at 23±1° C.
The maximum luminescence of fractions 1-6 was 24000, 80, 6670, 40, 1300 and 1000 correspondingly (a signal-to-noise ratio of the luminometer, the values were normalised against optical density at 360 nm).

[2] = molecular target: T2, luciferase and hispidin-3-hydroxylase (cold extract of N. nambi) (Neonothopanus nambi, UniProt A0A3G9K5C8); assay: Dependence of maximal bioluminescence (Imax) on reagent concentration in the reaction mixture; type: biochemical
T2 construct: an extract comprising the enzymes of the fungal bioluminescent system and free from low-molecular-weight components; from tissue; host or cells: Neonothopanus nambi mycelium, crude cold extract (30000 g supernatant of the homogenate)
T2 sequence (A0A3G9K5C8 whole entry): as above
Method: The concentrated hispidin solution was used to produce dilutions of 1/50, 1/500, 1/5000, 1/50000 in an aqueous solution with 0.1% Triton X-100 and 0.1% formic acid.
The reaction mixture in the bioluminometer cuvette comprised: 100 μL 0.1 M phosphate buffer, pH 7.5, containing 0.1 mM DTT, 4 μL of the cold extract of N. nambi, 1-5 μL of hispidin dilutions. The bioluminescent reaction was activated by adding 4 μL 10 mM NADPH. Bioluminescence was measured at 25° C.
The reaction mixture in the bioluminometer cuvette comprised: 100 μL 0.1 M phosphate buffer, pH 7.5, comprising 0.1 mM DTT, 4 μL of the cold extract of N. nambi, 4 μL 64 μM hispidin solution and various amounts of Triton X-100 detergent. The bioluminescent reaction was activated by adding 4 μL 10 mM NADPH. […] The optimal detergent concentration in the reaction mixture was determined as 0.015 to 0.03%. The maximum detergent concentration at which bioluminescence was observed was 0.5%.
The reaction mixture in the bioluminometer cuvette comprised: 100 μL 0.1 M phosphate buffer, pH 7.5, comprising 0.1 mM DTT, 4 μL of the cold extract of N. nambi, 4 μL […] hispidin solution. The bioluminescent reaction was activated by adding various amounts of NADPH. […] The minimum NADPH concentration which provided detectable bioluminescence was 20 μM.
The reaction mixture in the bioluminometer cuvette comprised: 100 μL 0.1 M phosphate buffer, pH 7.5, comprising various concentrations of DTT, 4 μL of the cold extract of N. nambi, 4 μL 64 μM hispidin solution. The bioluminescent reaction was activated by adding 4 μL 10 mM NADPH. […] The optimal DTT concentration in the reaction mixture was 0.5 to 3 mM. The maximum DTT concentration which provided bioluminescence was 10 mM.

[3] = system: luciferase and hispidin-3-hydroxylase; assay: Detection of luciferase and hispidin-3-hydroxylase in fungal cold extracts with hispidin and NAD(P)H; type: biochemical
Method: Commercially available hispidin (Sigma-Aldrich, USA) was used for detecting luciferase and hispidin-3-hydroxylase in the cold extracts obtained from the mycelia of Neonothopanus nambi, Mycena citricolor, Panellus stipticus, and Armillaria borealis as described in Example 1.
Hispidin was dissolved in DMSO to a final concentration of 8 mg/ml (32 mM). Then, the obtained concentrated solution was diluted 500-fold by aqueous solution containing 0.1% Triton X-100 and 0.1% formic acid. Hispidin concentration in the obtained working solution was 64 μM.
The reaction mixture in Glomax 20/20 cuvette (Promega, USA) comprised: 100 μL 0.2 M phosphate buffer, pH 7.5, comprising 0.1 mM DTT and 0.1 mM EDTA, 1-5 μL of fungal extract, 4 μL 64 μM hispidin solution. The luminescent reaction was initiated by adding 4 μL 10 mM NADPH.
In a different experiment, the same samples were tested for the presence of luciferase and hispidin-3-hydroxylase activities as described above with the exception that NADH was used (instead of NADPH). In this case, luminescence was 2-3 times lower than when using NADPH.

[4] = system: luciferase; assay: Detection of luciferase in microsomal fractions of cold extracts with 3-hydroxyhispidin; type: biochemical; settings: aliquots with 0.006 ng and 0.16 ng of luciferin; microsomal fractions of four fungi
Method: 3-hydroxyhispidin was obtained as described in Example 3. The microsomal fractions of the cold extracts of Neonothopanus nambi, Mycena citricolor, Panellus stipticus and Armillaria borealis were used as biological samples. The cold extracts were obtained as described in Example 2. The microsomal fractions were obtained as described in Example 3.
10 μg of 3-hydroxyhispidin were dissolved in 1 mL 50% water-acetonitrile mixture containing 0.1% formic acid.
During the experiment, in each case, the background luminescence of the microsomal fraction was measured in the first place, and then, at 0.7 and 1.55 minutes, 3-hydroxyhispidin solution aliquots were added, which contained 0.006 ng and 0.16 ng of luciferin, correspondingly.

[5] = Stability of 3-hydroxyhispidin; type: physicochemical
[6] = Solubility of 3-hydroxyhispidin; type: physicochemical
[7] = system: fungal bioluminescence; settings: isolated from Pleurotus japonicus; cited from earlier work
[8] = hispidin, NADPH, cold extract of N. nambi
[9] = 0.1 M phosphate buffer pH 7.5, 0.1 mM DTT, NADPH, 25° C.

For 3.3-bishispidinyl [Fraction 2], the maximum luminescence [1] was 80 signal-to-noise ratio of the luminometer.
With `O[C@H](CS)[C@H](O)CS` (racemic) [DTT, dithiothreitol, reference compound] the “maximum DTT concentration which provided bioluminescence” value [2, 8] was 10 mM.
For `O=c1cc(O)cc(/C=C/c2ccc(O)c(O)c2)o1` (single isomer, unassigned) [Fraction 1, (E)-6-(3,4-dihydroxystyryl)-4-hydroxy-2H-pyran-2-one], the maximum luminescence [1] was 24000 signal-to-noise ratio of the luminometer, the “luminescence of cold extracts after adding hispidin and NADPH” value ([3]; 4 μL 64 μM hispidin, 4 μL 10 mM NADPH, cold extracts of four fungi) was “Luminescence was detected in all cases” and the “hispidin concentration at which detectable luminescence was observed” value [2, 9] was no less than 0.002 µM. For the same compound, the “optimal hispidin concentration in the reaction mixture” value [2, 9] was 2.5 µM and the “hispidin concentration at which inhibition of the luminescent reaction was observed” value ([2]; probably substrate inhibition) was “more than 5 μM”.
For `O=c1cc(O)cc(/C=C\c2ccc(O)c(O)c2)o1` (single isomer, unassigned) [Fraction 3, (Z)-6-(3,4-dihydroxystyryl)-4-hydroxy-2H-pyran-2-one], the maximum luminescence [1] was 6670 signal-to-noise ratio of the luminometer.
With `O=c1cc(O)cc(/C=C/c2ccc(O)cc2)o1` (single isomer, unassigned) [Fraction 5, (E)-4-hydroxy-6-(4-hydroxystyryl)-2H-pyran-2-one] the maximum luminescence [1] was 1300 signal-to-noise ratio of the luminometer and the “maximum intensity of sample luminescence, times lower as compared to using hispidin” value ([3]; bisnoryangonin added instead of hispidin) was “approximately 10 times”.
With `O=c1cc(O)cc(/C=C\c2ccc(O)cc2)o1` (single isomer, unassigned) [Fraction 6, (Z)-4-hydroxy-6-(4-hydroxystyryl)-2H-pyran-2-one] the maximum luminescence [1] was 1000 signal-to-noise ratio of the luminometer.
For `O=c1oc(/C=C/c2ccc(O)c(O)c2)cc(O)c1O` [3-hydroxyhispidin, (E)-6-(3,4-dihydroxystyryl)-3,4-dihydroxy-2H-pyran-2-one], the “luminescence of microsomal fractions after adding 3-hydroxyhispidin” value [4] was “luminescence was detected”, the “storage time with no activity loss” value ([5]; lyophilized, −20° C., often no less than 60 days, normally no less than a year) was “no less than 30 days” and the thermal stability ([5]; water solution) was “can sustain short-term boiling”. For the same compound, the stability during chromatography ([5]; water-acetonitrile mixture with formic acid, final concentration 0.1%) was “shows stability”, the “solubility in aprotic solvents” value ([6]; DMSO, acetonitrile, acetone, etc.) was “readily soluble” and the solubility in water ([6]; water) was “moderately soluble”.
In the case of `O=c1cc(O)cc(C=Cc2cc(O)c(O)cc2-c2c(O)cc(C=Cc3ccc(O)cc3)oc2=O)o1` [Fraction 4, 3-bisnoryangonyl-14-hispidin], the maximum luminescence [1] is reported as 40 signal-to-noise ratio of the luminometer.
For `CC1=C2C(=C[C@@](C)(CO)[C@@H]2O)C(=O)[C@](C)(O)C12CC2` [illudin S], the bioluminescent activity [7] is given as “did not show bioluminescent activity”.
For `Cc1cc2nc3c(=O)[nH]c(=O)nc-3n(C[C@H](O)[C@H](O)[C@H](O)COC3OC(CO)C(O)C3O)c2cc1C` (some centres unmarked) [lampteroflavin], the bioluminescent activity [7] is listed as “did not show bioluminescent activity”.
For `Cc1cc2nc3c(=O)[nH]c(=O)nc-3n(C[C@H](O)[C@H](O)[C@H](O)CO)c2cc1C` [riboflavin], the bioluminescent activity [7] is listed as “did not show bioluminescent activity”.
For Triton X-100 [reference compound], the “maximum detergent concentration at which bioluminescence was observed” value [2, 8] was 0.5%.
In the case of “nicotinamide adenine dinucleotide phosphate [NADPH, reference compound]”, the “minimum NADPH concentration which provided detectable bioluminescence” value ([2]; hispidin, cold extract of N. nambi, pH 7.5) is reported as 20 µM.
